# Results reported in patent US10960007B2, “Pharmacologically active aryl-substituted pyrazolo[1,5-a]pyrimidine derivatives” (RICHTER GEDEON NYRT., priority 2017, dated 2021).
# Experiments:
# GABAB receptor = molecular target: T1, GABAB receptor (Rattus norvegicus, UniProt O88871+Q9Z0U4); experiment: In vitro [35S]GTPγS binding assay in rat cortical membranes; format: biochemical; conditions: [35S]GTPγS binding, rat cortical membranes; read-out: In vitro PAM potency (PAM EC50)
# T1 construct: from tissue; host or cells: rat brain cortex membranes
# T1 sequence (O88871 41-940): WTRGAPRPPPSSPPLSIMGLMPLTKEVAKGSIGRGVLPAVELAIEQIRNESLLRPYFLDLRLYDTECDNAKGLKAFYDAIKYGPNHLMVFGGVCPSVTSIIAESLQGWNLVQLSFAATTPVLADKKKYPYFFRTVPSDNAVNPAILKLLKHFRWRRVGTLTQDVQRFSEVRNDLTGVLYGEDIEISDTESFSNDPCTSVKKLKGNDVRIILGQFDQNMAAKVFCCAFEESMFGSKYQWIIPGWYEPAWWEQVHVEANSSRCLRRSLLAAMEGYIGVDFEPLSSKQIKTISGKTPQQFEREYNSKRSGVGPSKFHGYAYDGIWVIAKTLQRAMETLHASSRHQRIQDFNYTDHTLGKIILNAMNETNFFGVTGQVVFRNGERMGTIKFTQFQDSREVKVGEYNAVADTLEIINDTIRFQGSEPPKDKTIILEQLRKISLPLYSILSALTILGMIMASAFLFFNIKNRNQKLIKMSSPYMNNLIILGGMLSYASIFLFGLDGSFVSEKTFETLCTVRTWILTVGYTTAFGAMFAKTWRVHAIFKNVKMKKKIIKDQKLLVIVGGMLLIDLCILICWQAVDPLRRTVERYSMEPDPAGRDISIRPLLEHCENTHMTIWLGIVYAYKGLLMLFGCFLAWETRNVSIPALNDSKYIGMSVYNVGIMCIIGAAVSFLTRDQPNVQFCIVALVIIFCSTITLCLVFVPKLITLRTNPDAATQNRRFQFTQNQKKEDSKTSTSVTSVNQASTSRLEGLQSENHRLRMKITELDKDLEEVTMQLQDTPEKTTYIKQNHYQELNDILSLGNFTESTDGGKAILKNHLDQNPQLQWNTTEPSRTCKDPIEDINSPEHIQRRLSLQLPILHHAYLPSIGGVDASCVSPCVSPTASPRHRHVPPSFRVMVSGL
# T1 sequence (Q9Z0U4 17-960 limits assumed): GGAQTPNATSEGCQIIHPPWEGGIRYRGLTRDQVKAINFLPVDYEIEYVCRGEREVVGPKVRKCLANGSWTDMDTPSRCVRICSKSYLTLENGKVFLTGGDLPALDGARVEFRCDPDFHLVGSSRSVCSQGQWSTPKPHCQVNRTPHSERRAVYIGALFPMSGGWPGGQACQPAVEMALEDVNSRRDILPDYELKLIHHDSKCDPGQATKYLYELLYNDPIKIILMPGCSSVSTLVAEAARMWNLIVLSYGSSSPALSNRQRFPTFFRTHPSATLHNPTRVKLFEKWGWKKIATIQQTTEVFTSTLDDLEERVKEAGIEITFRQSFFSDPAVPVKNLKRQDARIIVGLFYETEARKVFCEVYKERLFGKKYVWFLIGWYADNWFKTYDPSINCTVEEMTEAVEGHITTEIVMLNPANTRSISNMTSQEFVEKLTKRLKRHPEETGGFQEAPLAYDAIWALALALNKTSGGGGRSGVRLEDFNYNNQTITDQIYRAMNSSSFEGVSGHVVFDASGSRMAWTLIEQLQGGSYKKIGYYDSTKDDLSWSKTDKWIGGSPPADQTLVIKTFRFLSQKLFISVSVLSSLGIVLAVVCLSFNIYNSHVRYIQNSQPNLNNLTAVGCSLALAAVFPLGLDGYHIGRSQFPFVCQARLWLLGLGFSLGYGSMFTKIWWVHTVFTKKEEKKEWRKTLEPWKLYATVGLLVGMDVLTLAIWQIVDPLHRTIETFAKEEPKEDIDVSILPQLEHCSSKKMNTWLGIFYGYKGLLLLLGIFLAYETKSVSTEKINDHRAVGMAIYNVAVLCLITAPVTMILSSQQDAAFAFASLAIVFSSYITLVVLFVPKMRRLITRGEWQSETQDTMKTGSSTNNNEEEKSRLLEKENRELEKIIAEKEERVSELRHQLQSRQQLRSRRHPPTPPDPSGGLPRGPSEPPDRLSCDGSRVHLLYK
# Description: In Vitro [^35S]GTPγS Binding Assay in Rat Cortical Membranes
# Cortices of freshly harvested rat brains were dissected on an ice-cold surface and homogenized by a glass Dounce homogeniser immediately in ice-cold buffer containing 50 mM Tris, 5 mM MgCl2 and 1 mM EDTA (pH=7.6). Tissue homogenates were centrifuged at 40000 g for 15 min at 4° C. Membrane pellets were resuspended in the same buffer and membranes were incubated for 10 min at 30° C. in a shaking water bath to eliminate endogenous GABA. Homogenates were centrifuged again under the same conditions. The final pellets were resuspended in ice-cold buffer (pH=7.6) containing 50 mM Tris, 100 mM NaCl, 7 mM MgCl2, 1 mM EDTA and 1 mM dithiotreithol (DTT) to yield a concentration of 20 mg tissue weight/ml and frozen at −70° C. until use. The assay was done in a buffer containing 50 mM Tris (pH=7.4), 100 mM NaCl, 7 mM MgCl2, 1 mM EDTA and 1 mM DTT. Each assay tube contained 150 μL GDP (in a final concentration of 50 μM), 100 μL ligand and 125 μL of the membrane suspension (250 μg tissue/tube). The assay tubes were preincubated for 10 min at 30° C. to assure equilibrium. Nonspecific binding was determined in the presence of 10 μM GTPγS; basal binding was determined in the presence of buffer only. After addition of […] [^35S]GTPγS in a volume of 25 μL to the tubes, membranes were incubated for an additional 60 min at 30° C. The assay was terminated by rapid filtration through Packard UniFilter GF/B using a Packard harvester and washed four times with 1 ml ice-cold buffer. After drying the filters at 40° C. for 1 h, 40 μL Microscint (Packard) was added to the filters and radioactivity of the filters was determined by a TopCount NXT (PerkinElmer, Waltham, Mass.; Alper and Nelson, Eur. J. Pharmacol. 1998, 343, 303-312; Rinken et al, Biochem. Pharmacol. 1999, 57, 155-162). Data thus gathered were used to determine PAM EC50 values for each compound as primary in vitro activity end point.
# adult rats = experiment: Foot shock-induced ultrasonic vocalization (USV) in adult rats; format: in vivo, rat; conditions: male Wistar rats; for inhibition in vivo at 10 mg/kg: Rattus norvegicus, po, 10 mg/kg per os, 1 h before shocking
# Description: Foot Shock-Induced Ultrasonic Vocalization (USV) in Adult Rats
# (§1) Under stressful conditions, adult rats emit 22 kHz ultrasounds that can be reduced by various pharmacological treatments (De Vry et al, Eur. J. Pharmacol. 1993, 249, 331-339; Sanchez, Eur. J. Pharmacol. 2003, 463, 133-143). […] Therefore, a foot shock-induced vocalization paradigm in adult rats was used to assess in vivo efficacy of centrally acting GABAB receptor ligands. Behavioral measurements were carried out on male Wistar rats (200-250 g, Toxicoop, Hungary). Rats were housed in groups of four in plastic cages with a wire grid top in a temperature and light-controlled laboratory animal care unit (22±2° C., 12-h light/dark cycle, lights on at 6:00 AM) with ad libitum access to commercial pellet rat food and tap water. Investigations were approved by the Local Ethical Committee of Gedeon Richter Plc. and were carried out in strict compliance with the European Directive 2010/63/EU regarding the care and use of laboratory animals for experimental procedures and all efforts were made to minimize the number of animals as well as their suffering. In order to evoke emission of ultrasounds, animals were footshocked after a habituation period of 30 s (6 shocks, 1 s, 0.8 mA each, inter-shock interval 10 s) in a sound attenuated shocking chamber (Experimetria, 40×40×80 cm). […] Vocalizations were measured right after the last footshock for 10 min with a Metris Sonotrack system and the total time of vocalizations was registered. Vocalization of parallel vehicle treated animals was considered as control value and inhibition percent was calculated for each compound. At approximately 75 min after treatment and behavioral measurements, blood and brain samples were harvested in order to determine exposures associated with in vivo activity.
# [1] = Plasma and brain exposure after USV measurement; format: in vivo; conditions: rat, per os, about 75 min after treatment
# Description: as §1
EC50 (GABAB receptor) [µM],Brain exposure at 1 mg/kg ([1]; formulation Tween) [ng/g],Plasma exposure at 1 mg/kg ([1]; formulation Tween) [ng/mL],Brain exposure at 1 mg/kg ([1]; formulation SpD1) [ng/g],Plasma exposure at 1 mg/kg ([1]; formulation SpD1) [ng/mL],Compound,"USV inhibition (%) (adult rats; at 3 mg/kg, per os)",inhibition in vivo at 10 mg/kg (adult rats) [%]
0.001 to 0.01,85,113,,,Cc1nc2c(F)c(-c3ccc(C(F)(F)F)cc3)nn2c(N2CCC[C@](C)(C(=O)O)C2)c1C(C)C [Example 84],42 (at 3 mg/kg) %,
,,,,,Cc1nc2c(F)c(-c3ccc(Cl)cc3)nn2c(N2CCCC(C(=O)O)C2)c1C(C)C (stereo not drawn) [Example 70],,71
0.01 to 0.1,,,,,CC[C@@]1(C(=O)O)CCCN(c2c(C(C)C)c(C)nc3cc(-c4ccc(Cl)cc4)nn23)C1 [Example 21],,
0.01 to 0.1,,,,,Cc1nc2cc(-c3ccc(C(F)(F)F)c(F)c3)nn2c(N2CCC[C@@](C(=O)O)(C(C)C)C2)c1C(C)C [Example 58],,
0.01 to 0.1,,,,,Cc1nc2cc(-c3ccc(Cl)cc3)nn2c(N2CCC[C@@](C(=O)O)(C(C)C)C2)c1C(C)C [Example 22],,
0.01 to 0.1,,,1962,2323,"CC[C@]1(C(=O)O)CCCN(c2c(C(C)C)c(C)nc3cc(-c4ccc(C(F)(F)F)c(F)c4)nn23)C1 [Example 14, (3S)-3-Ethyl-1-{2-[3-fluoro-4-(trifluoromethyl)phenyl]-5-methyl-6-(propan-2-yl)pyrazolo[1,5-ala]pyrimidin-7-yl}piperidine-3-carboxylic acid]",,47
0.001 to 0.01,165,326,,,"Cc1nc2cc(-c3ccc(C(F)(F)F)cc3F)nn2c(N2CCC[C@@](C(=O)O)(C(C)C)C2)c1C(C)C [Example 11, (3R)-1-{2-[2-Fluoro-4-(trifluoromethyl)phenyl]-5-methyl-6-(propan-2-yl)pyrazolo[1,5-a]pyrimidin-7-yl}-3-(propan-2-yl)piperidine-3-carboxylic acid]",,15
0.001 to 0.01,,,1377,1317,"CC[C@]1(C(=O)O)CCCN(c2c(C(C)C)c(C)nc3c(F)c(-c4ccc(C(F)(F)F)cc4)nn23)C1 [Example 15, (3S)-3-Ethyl-1-[3-fluoro-5-methyl-6-(propan-2-yl)-2-[4-(trifluoromethyl)phenyl]pyrazolo[1,5-a]pyrimidin-7-yl]piperidine-3-carboxylic acid]",,85
0.01 to 0.1,,,1849,1807,"Cc1nc2cc(-c3ccc(Cl)cc3)nn2c(N2CCC[C@](C(=O)O)(C(C)C)C2)c1C(C)C [Example 9, (3S)-1-[2-(4-Chlorophenyl)-5-methyl-6-(propan-2-yl)pyrazolo[1,5-a]pyrimidin-7-yl]-3-(propan-2-yl)piperidine-3-carboxylic acid]",,39
0.01 to 0.1,395,358,,,"Cc1nc2cc(-c3ccc(Cl)cc3)nn2c(N2CCCC(C(=O)O)(C(C)C)C2)c1C(C)C (stereo not drawn) [Example 3, 1-[2-(4-Chlorophenyl)-5-methyl-6-(propan-2-yl)pyrazolo[1,5-a]pyrimidin-7-yl]-3-(propan-2-yl)piperidine-3-carboxylic acid]",,58
0.01 to 0.1,,,1093,1275,CCC1(C(=O)O)CCCN(c2c(C(C)C)c(C)nc3cc(-c4ccc(Cl)cc4)nn23)C1 (stereo not drawn) [Example 20],,
0.001 to 0.01,332,506,,,"CC[C@]1(C(=O)O)CCCN(c2c(C(C)C)c(C)nc3cc(-c4ccc(C(F)(F)F)cc4F)nn23)C1 [Example 7, (3S)-3-Ethyl-1-{2-[2-fluoro-4-(trifluoromethyl)phenyl]-5-methyl-6-(propan-2-yl)pyrazolo[1,5-a]pyrimidin-7-yl}piperidine-3-carboxylic acid]",,90
,1193,298,,,"CC[C@@]1(C(=O)O)CCCN(c2c(C(C)C)c(C)nc3cc(-c4ccc(C(F)(F)F)cc4F)nn23)C1 [Example 8, (3R)-3-Ethyl-1-{2-[2-fluoro-4-(trifluoromethyl)phenyl]-5-methyl-6-(propan-2-yl)pyrazolo[1,5-a]pyrimidin-7-yl}piperidine-3-carboxylic acid]",,60
0.01 to 0.1,,,,,Cc1nc2cc(-c3ccc(Cl)cc3Cl)nn2c(N2CCC[C@](C(=O)O)(C(C)C)C2)c1C(C)C [Example 45],,
0.001 to 0.01,218,283,,,"Cc1nc2cc(-c3ccc(C(F)(F)F)cc3)nn2c(N2CCC[C@](C)(C(=O)O)C2)c1C(C)C [Example 12, (3S)-3-Methyl-1-[5-methyl-6-(propan-2-yl)-2-[4-(trifluoromethyl)phenyl]pyrazolo[1,5-a]pyrimidin-7-yl]piperidine-3-carboxylic acid]",,63
0.001 to 0.01,150,36,,,"Cc1nc2cc(-c3ccc(C(F)(F)F)cc3)nn2c(N2CCC[C@](C(=O)O)(C(C)C)C2)c1C(C)C [Example 10, (3S)-1-[5-Methyl-6-(propan-2-yl)-2-[4-(trifluoromethyl)phenyl]pyrazolo[1,5-a]pyrimidin-7-yl]-3-(propan-2-yl)piperidine-3-carboxylic acid]",,30
0.001 to 0.01,424,843,,,"Cc1nc2cc(-c3ccc(C(F)(F)F)cc3Cl)nn2c(N2CCC[C@](C)(C(=O)O)C2)c1C(C)C [Example 13, (3S)-1-{2-[2-Chloro-4-(trifluoromethyl)phenyl]-5-methyl-6-(propan-2-yl)pyrazolo[1,5-a]pyrimidin-7-yl}-3-methylpiperidine-3-carboxylic acid]",,90
0.001 to 0.01,144,443,,,"COCC1(C(=O)O)CCCN(c2c(C(C)C)c(C)nc3cc(-c4ccc(C(F)(F)F)cc4F)nn23)C1 (stereo not drawn) [Example 17, 1-{2-[2-Fluoro-4-(trifluoromethyl)phenyl]-5-methyl-6-(propan-2-yl)pyrazolo[1,5-a]pyrimidin-7-yl}-3-(methoxymethyl)piperidine-3-carboxylic acid]",,44
0.01 to 0.1,,,857,1472,"CC[C@]1(C(=O)O)CCCN(c2c(C(C)C)c(C)nc3cc(-c4ccc(Cl)cc4)nn23)C1 [Example 5, (3S)-1-[2-(4-Chlorophenyl)-5-methyl-6-(propan-2-yl)pyrazolo[1,5-a]pyrimidin-7-yl]-3-ethylpiperidine-3-carboxylic acid]",,37
0.01 to 0.1,28,103,,,COCC1(C(=O)O)CCCN(c2c(C(C)C)c(C)nc3cc(-c4ccc(C(F)(F)F)cc4)nn23)C1 (stereo not drawn) [Example 16],,41
